Reference: patent publication US7393839B2, “Polymorphic antiviral nucleoside compounds” (Roche Palo Alto LLC, priority 2003, dated 2008)
Counter-ions that a name gives are not always drawn.

What was measured:
[1] = Accelerated stability study (Form A): temperature, humidity, light; type: physicochemical
Protocol: Stability samples were evaluated for appearance, water content, chemical stability using an HPLC method and physical stability using DSC, specific rotation and x-ray powder diffraction methods. Photochemical stability was assessed by comparison with a control sample that was wrapped in aluminum foil and set side by side with the light sample in the light chamber.
DSC Thermograms were collected using a 2920 Modulated DSC from Thermal Analyzer (TA) Instruments. The heating rate was 10° C./min with a nitrogen purge maintained throughout the run.
Chromatography was carried out on a Zorbax SB-CN, 4.6×150 mm, 3.5 μm column. A ternary solvent gradient was used comprised of (A) water, (B) acetonitrile and (C) 200 mM heptane sulfonic acid sodium salt, monohydrate with 1% phosphoric acid in water. To prepare 500 mL of the solution, dissolve 22.0 g of 1-heptane sulfonic acid sodium salt, monohydrate in about 400 mL of water. Add 5 mL of phosphoric acid, 85% and then dilute to a volume of 500 mL with water and mix thoroughly. A flow rate of 1.0 mL/m was used. The column was run isocratically with 90% A and 10% C for 5 m. A linear gradient to 20% A, 70% B and 10% C was run over 20 m. This mixture was run isocratically for an addition 5 m after which the solvent was ramped back to 90% A and […] over 2 m followed by 8 m to reequilibrate the column. The column was maintained at 40° C.

[2] = Vapor sorption analysis (hygroscopicity); type: physicochemical
Excerpt: Vapor sorption analysis was used to assess the hygroscopicity of the Form A polymorph. The experiment was run in an isothermal mode and the sample weight recorded as the relative humidity was varied. During the adsorption phase Ib gained 0.5 wt % between 5% relative humidity (RH) and 85% RH. […] At the end of the analysis the sample was still solid and appeared to be crystalline. After the TGA analysis a portion of the sample was recovered and analyzed by DSC. The DSC thermograms of the starting material and of the material recovered following vapor sorption analysis were superimposable.
The experimental protocol was set up to dry the sample at 60° C. for a maximum of 1 h or until an equilibrium condition was reached which fluctuated less then 0.02 wt % in 5 min. The experiment was run isothermally at 25° C., and the %RH was increased from 5% to 95% in 10% increments. After each increment the sample held constant until equilibrium was reached. Equilibrium was defined as a per cent weight change of not more than 0.005 wt % in 5.00 minutes. After reaching 95% RH the RH was lowered back to 5% RH. If equilibrium was not reached within 2 hours, the %RH was advanced to the next programmed level.

[3] = Thermal stability on modulated temperature x-ray diffractometer; type: physicochemical; conditions: for thermal stability of crystalline form: monohydrochloride
[4] = Physical stability of Form B on storage; type: physicochemical; conditions: ambient temperature, 25° C./60% RH, 30° C./60% RH, 40° C./75% RH, at least 4 weeks
Excerpt: The Form B-polymorph was crystallized from water and formed platelets (FIG. 3B). […] (FIG. 5B) corresponding to approximately one mole of water per mole of Ib.

Vacuum drying of Form B = type: physicochemical
Bulk and tap density = type: physicochemical
Protocol: The bulk density of Ib was determined Vanderkamp™ tap density tester, with an acoustic cabinet, or equivalent (Van-Kel Industries, Inc., 36 Meridian Road, Edison, N.J. 08820) apparatus following. Ib was passed through a 20 mesh. A powder funnel was placed on top of a cylinder and the powder was transferred rapidly in to the cylinder while avoiding agitation or tapping of the cylinder and the lower funnel. The sample weight in the cylinder was determined and the bulk density was calculated.
The tapped density was determined by measuring the volume of drug substance in a 25 mL graduated cylinder after 300 taps of a known amount of drug substance. The apparatus used was a VanderKamp Tapped Density Tester. The tapped density was calculated as the known weight of drug substance divided by the measured volume.

HCV = conditions: unlike ribavirin; cited from earlier work
Th1 cytokine expression = conditions: antiviral Th1 cytokine expression; cited from earlier work
[5] = compared with ribavirin; cited from earlier work
[6] = Light Control (wrapped in aluminum foil), ICH Q1B
[7] = heating from room temperature to 175° C.

Molecule: 2-(S)-amino-3-methyl-butyric acid 5S-(3-carbamoyl-[1,2,4]triazol-1-yl)-3R,4S-dihydroxy-tetrahydrofuran-2S-yl methyl ester, monohydrochloride [Form A]
- % Purity (ext. std) ([1]; 2–8° C., 3 months): 99.9%
- Appearance ([1]; 2–8° C., 3 months): White to off-white
- % Purity (ext. std) ([1]; 2–8° C., 4 weeks): 100.4%
- Appearance ([1]; 2–8° C., 4 weeks): White crystalline
- % Purity (ext. std) ([1]; 25° C. 60% RH, 3 months): 99.8%
- Appearance ([1]; 25° C. 60% RH, 3 months): White to off-white
- % Purity (ext. std) ([1]; 25° C. 60% RH, 4 weeks): 100.2%
- Appearance ([1]; 25° C. 60% RH, 4 weeks): White crystalline
- % Purity (ext. std) ([1]; 30° C. 60% RH, 3 months): 100.2%
- Appearance ([1]; 30° C. 60% RH, 3 months): White to off-white
- % Purity (ext. std) ([1]; 30° C. 60% RH, 4 weeks): 100.7%
- Appearance ([1]; 30° C. 60% RH, 4 weeks): White crystalline
- % Purity (ext. std) ([1]; 40° C. 75% RH, 3 months): 100.1%
- Appearance ([1]; 40° C. 75% RH, 3 months): White to off-white
- % Purity (ext. std) ([1]; 40° C. 75% RH, 4 weeks): 100.6%
- Appearance ([1]; 40° C. 75% RH, 4 weeks): White crystalline
- % Purity (ext. std) ([1]; 60° C., 3 months): 98.7%
- Appearance ([1]; 60° C., 3 months): White to off-white
- % Purity (ext. std) ([1]; 60° C., 4 weeks): 100.8%
- Appearance ([1]; 60° C., 4 weeks): White crystalline
- % Purity (ext. std) [1, 6]: 100.9%
- Appearance [1, 6]: White crystalline
- % Purity (ext. std) ([1]; Light, ICH Q1B): 100.9%
- Appearance ([1]; Light, ICH Q1B): White crystalline
- % Purity (ext. std) ([1]; RT, Initial): 98.1%
- Appearance ([1]; RT, Initial): White crystalline
- hygroscopicity ([2]; 5%-95%-5% RH cycle, 25° C.): not hygroscopic
- DSC thermograms of starting material and material recovered following vapor sorption analysis ([2]; after 5%-95%-5% RH cycle): superimposable
- weight gained during adsorption phase ([2]; between 5% RH and 85% RH, isothermal 25° C.): 0.5 wt %
- weight increase during adsorption phase ([2]; between 85% and 95% RH, isothermal 25° C.): < 2.5 weight percent
- weight change during desorption phase ([2]; same %RH ranges, desorption): virtually all of the weight gained in the adsorption phase was lost
- thermal stability of crystalline form [3, 7]: did not change its crystalline form

Molecule: 2-(S)-amino-3-methyl-butyric acid 5S-(3-carbamoyl-[1,2,4]triazol-1-yl)-3R,4S-dihydroxy-tetrahydrofuran-2S-yl methyl ester, monohydrochloride [Form B]
- crystalline form after heating and cooling ([3]; from 32° C. to 140° C.): conversion of Form B into Form A
- temperature above which Form B was converted into Form A [3, 7]: above 80 °C
- thermal stability of crystalline form [3, 7]: unstable
- physical stability on storage [4]: physically stable
- crystalline form after vacuum drying (Vacuum drying of Form B; at elevated temperature): conversion of Form B to Form A
- crystalline form after vacuum drying (Vacuum drying of Form B; in the absence of heat): stable

Molecule: CC(C)C(N)C(=O)OC[C@@H]1O[C@H](n2cnc(C(N)=O)n2)[C@@H](O)[C@H]1O (stereo partly drawn) [Ib, 2-(S)-amino-3-methyl-butyric acid 5S-(3-carbamoyl-[1,2,4]triazol-1-yl)-3R,4S-dihydroxy-tetrahydrofuran-2S-yl methyl ester, monohydrochloride]
- change in DSC thermograms, specific rotation, water content, x-ray diffraction pattern and purity ([1]; over the study period, all storage conditions): no discernable change
- bulk density (Bulk and tap density): 0.35 g/mL
- tapped density (Bulk and tap density; after 300 taps): 0.58 g/mL

Molecule: NC(=O)c1ncn([C@H]2O[C@@H](CO)[C@H](O)[C@@H]2O)n1 [Levovirin, 1-(3S,4R-dihydroxy-5S-hydroxymethyl-tetrahydro-furan-2S-yl)-1H-[1,2,4]triazole-3-carboxylic acid amide]
- direct antiviral activity (HCV): does not have direct detectable antiviral activity
- immune response (Th1 cytokine expression): stimulates immune responses by enhancing antiviral Th1 cytokine expression
- toxicity [5]: appears to lack toxicity associated with ribavirin
